Data from US20160159814A1, “GLYCINE TRANSPORTER INHIBITOR” (TAISHO PHARMACEUTICAL CO., LTD., priority 2013, published 2016).

Biological target: T1, human type 1 glycine transporter (GlyT1) (Homo sapiens, UniProt P48067)
T1 construct: T98G cells (glioma cells) expressing human type 1 glycine transporter (GlyT1) were used; endogenous in cells; host or cells: T98G cells (human glioma cells)
T1 sequence (P48067 1-706): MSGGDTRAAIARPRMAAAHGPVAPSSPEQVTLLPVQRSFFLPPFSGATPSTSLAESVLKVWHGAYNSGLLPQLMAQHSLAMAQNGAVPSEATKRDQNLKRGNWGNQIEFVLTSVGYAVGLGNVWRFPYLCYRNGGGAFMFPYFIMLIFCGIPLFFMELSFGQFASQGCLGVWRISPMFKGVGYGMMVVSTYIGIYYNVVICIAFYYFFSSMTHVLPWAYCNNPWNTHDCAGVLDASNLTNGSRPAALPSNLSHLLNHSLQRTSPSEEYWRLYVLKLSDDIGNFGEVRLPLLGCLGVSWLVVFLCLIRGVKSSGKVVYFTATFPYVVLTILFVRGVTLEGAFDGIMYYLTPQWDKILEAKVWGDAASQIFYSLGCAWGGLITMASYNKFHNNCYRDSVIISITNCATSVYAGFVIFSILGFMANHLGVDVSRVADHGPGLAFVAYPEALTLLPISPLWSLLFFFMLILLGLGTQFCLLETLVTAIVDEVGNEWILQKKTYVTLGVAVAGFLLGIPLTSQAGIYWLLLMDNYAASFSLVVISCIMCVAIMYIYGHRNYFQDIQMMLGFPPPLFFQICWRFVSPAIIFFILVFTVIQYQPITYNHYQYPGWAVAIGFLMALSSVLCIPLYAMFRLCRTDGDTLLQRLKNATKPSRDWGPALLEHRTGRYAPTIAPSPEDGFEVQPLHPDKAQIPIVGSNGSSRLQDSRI
Test: Glycine uptake inhibition experiment ([3H] glycine uptake in T98G cells expressing GlyT1)
Format: cell-based
Method in brief: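 T98G glioma cells expressing human GlyT1 were pretreated 10 min with compound in HEPES buffer pH 7.4 (0.2% BSA), then incubated with compound plus 250 nM final [3H]glycine for 15 min at room temperature. Intracellular radioactivity was counted after NaOH lysis; 10 μM ALX5407 defined non-specific uptake. IC50 came from 10^−9–10^−5 M curves.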

| IC50 [nM] | Structure (SMILES) |
| --- | --- |
| 79 | C[C@H](O)c1cccc2c1C(F)(F)C(=O)N2Cc1cncc(OC(F)F)c1 [Compound 189, 1-{[5-(difluoromethoxy)pyridin-3-yl]methyl}-3,3-difluoro-4[(1S)-1-hydroxyethyl)-1,3-dihydro-2H-indol-2-one] |
| 51 | C[C@H](O)c1cccc2c1C(F)(F)C(=O)N2Cc1ccc(Br)nc1 [Compound 190, 1-[(6-bromopyridin-3-yl)methyl]-3,3-difluoro-4-[(1S)-1-hydroxyethyl]-1,3-dehydro-2H-indol-2-one] |
| 67 | C[C@H](O)c1cccc2c1C(F)(F)C(=O)N2Cc1ccnc(C#N)c1Cl [Compound 192] |
| 1400 | C[C@H](O)c1cccc2c1C(F)(F)C(=O)N2Cc1ccc(-n2cncn2)nc1 [Compound 193, 3,3-difluoro-4-[(1S)-1-hydroxyethyl]-1-{[6-(1H-1,2,4-biazol-1-yl)pyridin-3-yl]methyl}-1,3-dihydro-2H-indol-2-one] |
| 43 | C[C@H](O)c1cccc2c1C(F)(F)C(=O)N2Cc1ccnc(OC(F)F)c1 [Compound 194, 1-{[2-(difluoromethoxy)pyridin-4-yl]methyl}-3,3-difluoro-4-[(1S)-1-hydroxyethyl]-1,3-dihydro-2H-indol-2-one] |
| 42 | C[C@H](O)c1cccc2c1C(F)(F)C(=O)N2Cc1cc(C#N)ncc1Cl [Compound 195, 5-chloro-4-({3,3-difluoro-4-[(1S)-1-hydroxyethyl]-2-oxo-2,3-dihydro-1H-indol-1-yl}methyl)pyridine-2-carbonitrile] |
| 4200 | C[C@H](O)c1cccc2c1C(F)(F)C(=O)N2Cc1ccc(-n2nccn2)nc1 [Compound 196, 3,3-difluoro-4-[(1S)-1-hydroxyethyl]-1-{[6-(2H-1,2,3-triazol-2-yl)pyridin-3-yl]methyl)-1,3-dihydro-2H-indol-2-one] |
| 6700 | C[C@H](O)c1cccc2c1C(F)(F)C(=O)N2Cc1ccc(-n2ccnn2)nc1 [Compound 197, 3,3-difluoro-4-[(1S)-1-hydroxyethyl]-1-{[6-(1H-1,2,3-triazol-1-yl)pyridin-3-yl]methyl)-1,3-dihydro-2H-indol-2-one] |
| 160 | C[C@H](O)c1cccc2c1C(F)(F)C(=O)N2Cc1ccc(C2CC2)nc1 [Compound 198, 1-[(6-cyclopropylpyridin-3-yl)methyl]-3,3-difluoro-4-[(1S)-1-hydroxyethyl]-1,3-dihydro-2H-indol-2-one] |
| 110 | C[C@H](O)c1cccc2c1C(F)(F)C(=O)N2Cc1cnc(Cl)cn1 [Compound 199, 1-[(5-chloropyrazin-2-yl)methyl]-3,3-difluoro-4-[(1S)-1-hydroxyethyl]-1,3-dihydro-2H-indol-2-one] |
| 8.6 | C[C@H](O)c1cccc2c1C(F)(F)C(=O)N2Cc1cnc(Cl)c(Cl)c1 [Compound 200, 1-[(5,6-dichloropyridin-3-yl)methyl]-3,3-difluoro-4-[(1S)-1-hydroxyethyl]-1,3-dihydro-2H-indol-2-one] |
| 830 | C[C@H](O)c1cccc2c1C(F)(F)C(=O)N2Cc1ccc(C#N)nc1 [Compound 201, 5-({3,3-difluoro-4-[(1S)-1-hydroxyethyl]-2-oxo-2,3-dihydro-1-indol-1-yl}methyl)pyridine-2-carbonitrile] |
| 6.9 | C[C@H](O)c1cccc2c1C(F)(F)C(=O)N2Cc1ccc(Cl)c(C#N)n1 [Compound 202, 3-chloro-6-({3,3-difluoro-4-[(1S)-1-hydroxyethyl]-2-oxo-2,3-dihydro-1H-indol-1-yl)methyl)pyridine-2-carbonitrile] |
| 31 | COc1ccc(CN2C(=O)C(F)(F)c3c([C@H](C)O)cccc32)cn1 [Compound 203, 3,3-difluoro-4-[(1S)-1-hydroxyethyl]-1-[(6-methoxypyridin-3-yl)methyl]-1,3-dihydro-2H-indol-2-one] |
| 110 | C[C@H](O)c1cccc2c1C(F)(F)C(=O)N2Cc1ccc(Cl)nn1 [Compound 204, 1-[(6-chloropyridazin-3-yl)methyl]-3,3-difluoro-4-[(1S)-1-hydroxyethyl]-1,3-dihydro-2H-indol-2-one] |
